Test results taken from paper PMC12311259, “Antifibrotic effects of specific targeting of the 5‐hydroxytryptamine 2B receptor (5‐HT2BR) in murine models and ex vivo models of scleroderma skin” (Arthritis & Rheumatology (Hoboken, N.j.), 2025).

Experiments:
Adrenergic α1A (hu) = target: T1, Adrenergic α1A (hu) (Homo sapiens, UniProt P35348); assay: Functionality assay, IP1, Eurofins Panlabs 302040; format: cell-based
T1 construct: Eurofins Panlabs 302040
Excerpt: (§1) Effects were considered significant if AM1476's mean value was three or more SDs above the vehicle control mean in the agonist assay or three or more SDs below the positive control agonist (5‐nM α‐methylserotonin) mean in the antagonist assay. AM1476 was screened for selectivity against approximately 200 targets using a Eurofins Panlabs Spectrum screen panel including enzymatic and receptor binding assays.

[1] = system: Sodium Channel, Site 2 (gp); assay: Functionality assay, Eurofins Panlabs 475010; format: biochemical, guinea pig
Excerpt: as §1

human 5-HT2AR [2] = target: T2, human 5-HT2AR (Homo sapiens, UniProt P28223); assay: Functionality assay, HTRF quantification of IP1 accumulation in CHO-K1 cells; format: cell-based; details: inhibition of 5-HT (5 nM) induced IP1 response, read-out: IC50, antagonistic activity, human 5-HT2A
T2 construct: 355250 (IP1); host or cells: CHO-K1
T2 sequence (P28223 whole entry): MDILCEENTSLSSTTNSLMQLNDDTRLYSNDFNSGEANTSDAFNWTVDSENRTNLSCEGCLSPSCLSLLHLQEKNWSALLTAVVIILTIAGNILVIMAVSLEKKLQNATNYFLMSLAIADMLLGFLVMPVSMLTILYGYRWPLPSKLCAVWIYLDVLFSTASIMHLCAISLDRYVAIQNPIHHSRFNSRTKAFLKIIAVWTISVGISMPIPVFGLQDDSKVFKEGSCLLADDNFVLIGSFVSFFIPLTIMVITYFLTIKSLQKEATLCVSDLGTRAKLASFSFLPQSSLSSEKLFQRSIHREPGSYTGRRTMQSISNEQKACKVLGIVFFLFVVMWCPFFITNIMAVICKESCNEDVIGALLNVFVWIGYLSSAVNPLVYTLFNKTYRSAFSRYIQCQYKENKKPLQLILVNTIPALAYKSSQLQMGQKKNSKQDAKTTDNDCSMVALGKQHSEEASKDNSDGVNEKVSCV
Description: (§2) The binding profile of AM1476 was evaluated for binding to human 5‐HT2AR, 5‐HT2BR, and 5‐HT2CR in radioligand binding assays using Chinese hamster ovary (CHO‐K1) cells overexpressing human receptors (in vitro assays 271650, 271700, and 271800; Eurofins Panlabs Discovery). AM1476 was evaluated at 0.1, 1, 10, 100, 1,000, and 10,000 nM (5‐HT2BR) or at 1, 10, 100, 1,000, and 10,000 nM (5‐HT2AR and 5‐HT2CR). Human 5‐HT2AR and 5‐HT2BR functionality was measured with homogeneous time‐resolved fluorescence quantification of IP1 accumulation in CHO‐K1 cells (in vitro assays 355250 and 355260). Compounds creating a ≥50% inhibition of 5‐HT (5 nM) induced fluorescence response specified receptor antagonist activity. 5‐HT2CR functionality was assessed with [35S] GTPγS for quantification of bound GTPγS. Compounds creating a ≥50% inhibition of 5‐HT (100 nM) induced [35S] GTPγS binding response specified receptor antagonist activity (in vitro assay 355200). AM1476 was evaluated at 0.1, 0.3, 1, 3, 10, 30, and 300 nM (5‐HT2BR) or 1, 10, 100, 1,000, and 10,000 nM (5‐HT2AR and 5‐HT2CR). […] Mouse 5‐HT2BR functionality was measured in a calcium influx assay (Charles River) in CHO‐KI cells expressing the mouse 5‐HT2BR using a calcium sensitive dye and a fluorescence imaging plate reader (FLIPRTETRA) instrument. AM1476 was evaluated at 0.3, 1, 3, 10, 30, 100, 300, and 1,000 nM.

Adrenergic β1 (hu) = target: T3, Adrenergic β1 (hu) (Homo sapiens, UniProt P08588); assay: Functionality assay, Adenylyl Cyclase, Eurofins Panlabs 302230; format: cell-based
T3 construct: Eurofins Panlabs 302230
T3 sequence (P08588 whole entry): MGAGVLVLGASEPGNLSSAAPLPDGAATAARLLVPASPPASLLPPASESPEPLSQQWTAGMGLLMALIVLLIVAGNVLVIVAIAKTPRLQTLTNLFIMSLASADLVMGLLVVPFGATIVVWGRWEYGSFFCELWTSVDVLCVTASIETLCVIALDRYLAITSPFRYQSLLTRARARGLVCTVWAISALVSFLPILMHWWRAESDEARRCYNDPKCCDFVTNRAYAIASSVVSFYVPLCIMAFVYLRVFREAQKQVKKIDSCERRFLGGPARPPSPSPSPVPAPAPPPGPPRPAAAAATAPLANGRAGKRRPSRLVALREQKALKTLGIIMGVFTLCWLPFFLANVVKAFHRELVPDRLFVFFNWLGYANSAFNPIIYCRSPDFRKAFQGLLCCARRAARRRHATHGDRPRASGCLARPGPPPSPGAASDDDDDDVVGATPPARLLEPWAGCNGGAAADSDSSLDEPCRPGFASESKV
Excerpt: as §1

Mouse 5-HT2BR = target: T4, Mouse 5-HT2BR (Mus musculus, UniProt Q02152); assay: Calcium influx functionality assay (FLIPR) in CHO-K1 cells expressing mouse 5-HT2BR; format: cell-based; details: agonist 5 nM α-methylserotonin
T4 construct: host or cells: CHO-K1
T4 sequence (Q02152 whole entry): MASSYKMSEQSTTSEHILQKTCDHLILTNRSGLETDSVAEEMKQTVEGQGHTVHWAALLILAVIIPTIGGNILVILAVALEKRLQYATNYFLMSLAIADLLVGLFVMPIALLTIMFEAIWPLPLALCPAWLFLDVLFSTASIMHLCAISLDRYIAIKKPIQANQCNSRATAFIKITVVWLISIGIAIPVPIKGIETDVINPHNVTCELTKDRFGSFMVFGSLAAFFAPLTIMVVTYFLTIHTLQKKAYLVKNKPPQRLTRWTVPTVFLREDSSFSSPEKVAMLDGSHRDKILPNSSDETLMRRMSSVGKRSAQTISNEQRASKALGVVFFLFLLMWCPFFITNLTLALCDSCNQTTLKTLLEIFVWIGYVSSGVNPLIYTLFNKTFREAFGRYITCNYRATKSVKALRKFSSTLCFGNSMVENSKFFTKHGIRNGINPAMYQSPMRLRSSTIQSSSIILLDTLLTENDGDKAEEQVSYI
Description: as §2, with “nM. […]” for “nM.”

Adrenergic β2 (hu) = target: T5, Adrenergic β2 (hu) (Homo sapiens, UniProt P07550); assay: Functionality assay, Adenylyl Cyclase, Eurofins Panlabs 302150; format: cell-based
T5 construct: Eurofins Panlabs 302150
T5 sequence (P07550 whole entry): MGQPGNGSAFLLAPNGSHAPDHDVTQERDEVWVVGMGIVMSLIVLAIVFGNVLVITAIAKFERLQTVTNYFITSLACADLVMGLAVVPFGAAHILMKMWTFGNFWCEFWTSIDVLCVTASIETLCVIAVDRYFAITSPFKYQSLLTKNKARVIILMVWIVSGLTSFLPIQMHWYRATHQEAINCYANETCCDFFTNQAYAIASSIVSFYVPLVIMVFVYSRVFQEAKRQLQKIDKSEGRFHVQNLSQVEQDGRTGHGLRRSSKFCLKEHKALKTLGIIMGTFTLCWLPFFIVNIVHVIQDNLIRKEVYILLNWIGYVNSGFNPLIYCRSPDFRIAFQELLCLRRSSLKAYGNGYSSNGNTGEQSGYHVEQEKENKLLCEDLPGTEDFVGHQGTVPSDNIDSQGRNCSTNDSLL
Excerpt: as §1

[3] = system: approximately 200 targets; assay: Eurofins Panlabs Spectrum screen selectivity panel (enzymatic and receptor binding assays); details: no binding defined as <50% inhibition at 10 μM
Excerpt: as §1

[4] = target: T6, Serotonin (5-Hydroxytryptamine) 5-HT6 (hu) (Homo sapiens, UniProt P50406); assay: Receptor binding, Eurofins Panlabs 272200
T6 construct: 318000 (adenylyl cyclase)
T6 sequence (P50406 whole entry): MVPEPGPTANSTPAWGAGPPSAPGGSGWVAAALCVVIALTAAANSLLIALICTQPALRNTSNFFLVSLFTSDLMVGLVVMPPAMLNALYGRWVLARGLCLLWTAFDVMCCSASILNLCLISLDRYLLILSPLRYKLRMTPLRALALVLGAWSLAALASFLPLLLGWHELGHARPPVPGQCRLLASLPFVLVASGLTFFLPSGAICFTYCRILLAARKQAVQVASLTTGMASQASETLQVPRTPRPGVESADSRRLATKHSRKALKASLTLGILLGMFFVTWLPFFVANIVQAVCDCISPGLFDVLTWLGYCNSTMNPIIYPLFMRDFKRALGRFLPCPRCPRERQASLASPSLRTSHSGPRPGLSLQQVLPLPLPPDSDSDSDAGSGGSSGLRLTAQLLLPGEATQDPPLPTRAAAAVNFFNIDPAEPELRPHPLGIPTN
Excerpt: as §1

[5] = target: T7, Serotonin (5-Hydroxytryptamine) 5-HT1A (hu) (Homo sapiens, UniProt P08908); assay: Receptor binding, Eurofins Panlabs 271110
T7 construct: Eurofins Panlabs 271110
T7 sequence (P08908 whole entry): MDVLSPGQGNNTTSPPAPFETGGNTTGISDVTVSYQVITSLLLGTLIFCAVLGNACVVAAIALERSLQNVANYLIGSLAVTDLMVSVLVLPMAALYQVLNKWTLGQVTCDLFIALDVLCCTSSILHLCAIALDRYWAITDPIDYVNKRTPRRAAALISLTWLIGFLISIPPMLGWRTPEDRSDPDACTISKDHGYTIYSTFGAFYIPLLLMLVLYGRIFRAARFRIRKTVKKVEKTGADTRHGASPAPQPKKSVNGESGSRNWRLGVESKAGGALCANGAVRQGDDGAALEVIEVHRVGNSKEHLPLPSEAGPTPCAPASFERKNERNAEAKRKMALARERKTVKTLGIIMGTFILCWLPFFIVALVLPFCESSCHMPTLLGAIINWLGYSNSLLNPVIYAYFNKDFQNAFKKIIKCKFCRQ
Excerpt: as §1

5-HT2CR = target: T8, 5-HT2CR (Homo sapiens, UniProt P28335); assay: Radioligand binding assay, CHO-K1 cells overexpressing human receptor (Eurofins Panlabs); details: read-out: inhibition constant (Ki), 5-HT2CR
T8 construct: 355200 (GTPγS); host or cells: CHO-K1
T8 sequence (P28335 33-458): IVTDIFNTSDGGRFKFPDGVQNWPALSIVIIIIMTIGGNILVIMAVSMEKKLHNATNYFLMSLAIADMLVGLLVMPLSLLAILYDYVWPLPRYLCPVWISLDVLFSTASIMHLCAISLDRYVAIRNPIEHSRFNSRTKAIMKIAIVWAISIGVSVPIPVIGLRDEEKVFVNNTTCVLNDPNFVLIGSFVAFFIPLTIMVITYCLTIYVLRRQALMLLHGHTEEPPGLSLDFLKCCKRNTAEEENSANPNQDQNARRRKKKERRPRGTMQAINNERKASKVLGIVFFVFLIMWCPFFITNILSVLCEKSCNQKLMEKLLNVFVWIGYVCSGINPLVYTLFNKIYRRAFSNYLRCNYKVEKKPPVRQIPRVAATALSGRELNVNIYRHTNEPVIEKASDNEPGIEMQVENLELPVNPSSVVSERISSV
Description: (§3) The binding profile of AM1476 was evaluated for binding to human 5‐HT2AR, 5‐HT2BR, and 5‐HT2CR in radioligand binding assays using Chinese hamster ovary (CHO‐K1) cells overexpressing human receptors (in vitro assays 271650, 271700, and 271800; Eurofins Panlabs Discovery). AM1476 was evaluated at 0.1, 1, 10, 100, 1,000, and 10,000 nM (5‐HT2BR) or at 1, 10, 100, 1,000, and 10,000 nM (5‐HT2AR and 5‐HT2CR). Human 5‐HT2AR and 5‐HT2BR functionality was measured with homogeneous time‐resolved fluorescence quantification of IP1 accumulation in CHO‐K1 cells (in vitro assays 355250 and 355260). Compounds creating a ≥50% inhibition of 5‐HT (5 nM) induced fluorescence response specified receptor antagonist activity. 5‐HT2CR functionality was assessed with [35S] GTPγS for quantification of bound GTPγS. Compounds creating a ≥50% inhibition of 5‐HT (100 nM) induced [35S] GTPγS binding response specified receptor antagonist activity (in vitro assay 355200). AM1476 was evaluated at 0.1, 0.3, 1, 3, 10, 30, and 300 nM (5‐HT2BR) or 1, 10, 100, 1,000, and 10,000 nM (5‐HT2AR and 5‐HT2CR). A nonlinear least squares regression analysis was used to determine half‐maximal inhibitory concentration (IC50) values. Mouse 5‐HT2BR functionality was measured in a calcium influx assay (Charles River) in CHO‐KI cells expressing the mouse 5‐HT2BR using a calcium sensitive dye and a fluorescence imaging plate reader (FLIPRTETRA) instrument. AM1476 was evaluated at 0.3, 1, 3, 10, 30, 100, 300, and 1,000 nM.

human 5-HT2AR [6] = target: T2, human 5-HT2AR; assay: as above; details: read-out: inhibition constant (Ki), 5-HT2AR
Description: as §3

human 5-HT2BR = target: T9, human 5-HT2BR (Homo sapiens, UniProt P41595); assay: as above; details: read-out: inhibition constant (Ki), human 5-HT2BR
T9 construct: 355260 (IP1); host or cells: CHO-K1
T9 sequence (P41595 whole entry): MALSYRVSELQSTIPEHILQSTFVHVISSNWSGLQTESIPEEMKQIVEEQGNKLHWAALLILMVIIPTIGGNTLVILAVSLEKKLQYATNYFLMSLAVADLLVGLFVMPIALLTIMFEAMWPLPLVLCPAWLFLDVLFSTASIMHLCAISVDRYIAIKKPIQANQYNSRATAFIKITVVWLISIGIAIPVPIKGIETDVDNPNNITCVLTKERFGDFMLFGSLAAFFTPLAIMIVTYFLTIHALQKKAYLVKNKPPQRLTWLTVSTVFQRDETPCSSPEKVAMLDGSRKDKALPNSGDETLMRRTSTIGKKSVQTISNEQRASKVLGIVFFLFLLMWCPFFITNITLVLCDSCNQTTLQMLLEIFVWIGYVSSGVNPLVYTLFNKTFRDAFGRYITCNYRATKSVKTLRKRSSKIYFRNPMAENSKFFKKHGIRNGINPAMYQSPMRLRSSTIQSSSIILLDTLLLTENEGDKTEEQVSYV
Description: as §3

T1 sequence (P35348 whole entry): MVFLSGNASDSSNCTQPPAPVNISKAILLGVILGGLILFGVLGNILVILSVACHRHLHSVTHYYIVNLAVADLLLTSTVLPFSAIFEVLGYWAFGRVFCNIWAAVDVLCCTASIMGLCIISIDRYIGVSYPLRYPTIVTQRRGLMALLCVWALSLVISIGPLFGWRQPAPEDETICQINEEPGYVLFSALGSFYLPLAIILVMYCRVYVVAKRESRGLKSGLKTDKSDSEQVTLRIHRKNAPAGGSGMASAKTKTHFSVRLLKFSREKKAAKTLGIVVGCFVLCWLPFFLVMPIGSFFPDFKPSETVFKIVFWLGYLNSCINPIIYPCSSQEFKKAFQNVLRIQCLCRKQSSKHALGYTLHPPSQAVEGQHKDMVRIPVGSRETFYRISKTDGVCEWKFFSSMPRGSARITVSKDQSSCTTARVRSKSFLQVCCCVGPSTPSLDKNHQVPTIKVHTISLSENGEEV

## C[C@@H]1CN(C(=N)N)N=C1c1ccc(F)cc1O [AM1476]
Adrenergic α1A (hu)
  IC50: 4340 nM
Adrenergic α1A (hu); at 300 µM
  agonistic activity, Adrenergic α1A: No significant agonistic activity at 300 µM
[1]
  IC50: > 30000 nM
[1]; at 30 µM
  agonistic activity, Sodium Channel, Site 2: No significant agonistic activity at 30 µM
Human 5-HT2AR [2]
  IC50: > 10000 nM
Adrenergic β1 (hu)
  IC50: 32500 nM
Adrenergic β1 (hu); at 300 µM
  agonistic activity, Adrenergic β1: No significant agonistic activity at 300 µM
Mouse 5-HT2BR
  IC50: 11.5 nM
Adrenergic β2 (hu)
  IC50: 154000 nM
Adrenergic β2 (hu); at 300 µM
  agonistic activity, Adrenergic β2: No significant agonistic activity at 300 µM
[3]
  binding to approximately 200 other targets: no binding to the majority of targets
[4]; 1 µM (value in brackets)
  % Inhibition at 1 µM, 5-HT6 (hu): 51%
[4]; 10 µM
  % Inhibition at 10 µM, 5-HT6 (hu): 90%
[5]
  % Inhibition at 10 µM, 5-HT1A (hu): 16%
5-HT2CR
  Ki: 60 nM
Human 5-HT2AR [6]
  Ki: 800 nM
Human 5-HT2BR
  Ki: 6 nM
